From patent US4405638A, “2-Methoxyphenyl esters of N-substituted amino acids, a process for their preparation and pharmaceutical compositions containing them” (Sigma-Tau Industrie Farmaceutiche Riunite S.p.A, priority 1981, dated 1983)

Experiments:
bronchial secretion = test: Expectorating activity: amount of bronchial secretion in rabbits (method of Perry et al.); type: in vivo, rabbit; conditions: male rabbits, 20 to 40 mg
Procedure: The experimentation was carried out on male rabbits, weighting 2-3 kg, narcotized with ethyl urethane, according to the method described by Perry et al. (J. Pharm. Exp. Ther. 73, 65 (1941)). Each compound of formula (I) was administered to 5 rabbits in doses ranging from 20 to 40 mg, 1 hour after the incannulation. The control group (8 rabbits) was given only water. The amount of secretion was determined 1, 2 and 4 hours after the administration.
Effects of compounds of formula (I) on the bronchial secretion
Percentage variations (± standard error) of the
bronchial secretion, in comparison with the
basic values, in the following times after the […]

[1] = Acute toxicity, LD50 by the Weil method, intraperitoneal administration in the mouse; conditions: in vivo, ip, N = 4 K = 4, confidential limits given
Text: LD50 of the compounds of formula (I), evaluated by the Weil method ("Tables for convenient calculation of median effective dose (LD50 or ED50) and instructions in their use", Biometrics, 249-253, 1952), by intraperitoneal administration in the mouse.
LD50 and confidential limits, mg/kg i.p., of the
compounds of formula I. Weil method, N = 4 K = 4

bronchial tree = test: Bronchosecretogogic activity: sodium fluoresceine method in the rat (Mawatari); type: in vivo; conditions: 500 mg/kg i.p.
Procedure: The bronchosecretogogic activity of compound (2), i.e. 2-methoxyphenyl N-[2-(2-thenoylthio)propionyl]aminoacetate, was tested according to the method of the sodium fluoresceine in the rat, as described by Mawatari (Experimental Studies on the expectorant action of several drugs, Kagoshima Daigaku Igaku Zasshi 27, 561 (1976)), in comparison with S-carboxymethyl-cysteine (CMC) and N-(2-mercaptopropionyl)glycine (MPG).
Removal of the sodium fluoresceine from the bronchial
tree (percentage increase versus the controls).

[2] = In vivo pharmacokinetics in the rat
Text: After administration of equimolecular doses of N-[2-(2-thenoylthio)propionyl]glycine and of the corresponding 2-methoxyphenyl ester (compound (2)), higher lung concentrations of N-(2-mercaptopropionyl)glycine and thiophene-2-carboxylic acid are found in the case of compound (2) administration.

cough = test: Antitussive activity: cough induced by citric acid aerosol in Guinea pigs; type: in vivo
Procedure: This activity was tested on Guinea pigs, in which cough was induced by citric acid aerosol, in comparison with codeine. Compound (2) was administered per os and intraperiotoneally.
Antitussive activity. Cough induced in Guinea pigs

esterase = test: In vitro enzymatic hydrolysis of compound (2); type: in vitro ADME
Procedure: "In vitro" and "in vivo" tests were carried out.

[3] = equimolecular doses, versus N-[2-(2-thenoylthio)propionyl]glycine

SMILES	Percentage variations (± standard error) of the bronchial secretion, in comparison with the basic values (bronchial secretion; 1h after the administration)	Percentage variations (± standard error) of the bronchial secretion, in comparison with the basic values (bronchial secretion; 2h after the administration)	Percentage variations (± standard error) of the bronchial secretion, in comparison with the basic values (bronchial secretion; 4h after the administration)	LD50 [1] [mg/kg]	also measured
COc1ccccc1OC(=O)CNC(C)=O [(1), 2-methoxyphenyl ester of N-acetlyglycine]	+1,3 ± 0,02%	-1,4 ± 0,03%	+2,3 ± 0,07%	1010	–
COc1ccccc1OC(=O)C(C)NC(C)=O (stereo not drawn) [(3), 2-methoxyphenyl ester of N-acetylalanine]	+0,8 ± 0,04%	+1,2 ± 0,04%	+2,7 ± 0,08%	1150	–
COc1ccccc1OC(=O)C(C)NC(=O)C(C)SC(=O)c1cccs1 (stereo not drawn) [(4), 2-methoxyphenyl ester of N-[2-(2-thenoylthio)propionyl]alanine]	+1,5 ± 0,05%	+1,9 ± 0,08%	+2,5 ± 0,09%	960	–
COc1ccccc1OC(=O)C(CS)NC(C)=O (stereo not drawn) [(5), 2-methoxyphenyl ester of N-acetylcysteine]	+0,9 ± 0,05%	+2,1 ± 0,01%	+3,8 ± 0,09%	1270	–
COc1ccccc1OC(=O)C(CSC(C)=O)NC(C)=O (stereo not drawn) [(6), 2-methoxyphenyl ester of N,S-diacetylcysteine]	+0,4 ± 0,05%	+2,1 ± 0,05%	+1,9 ± 0,04%	1580	–
COc1ccccc1OC(=O)C(CSCC(=O)O)NC(C)=O (stereo not drawn) [(7), 2-methoxyphenyl ester of N-acetyl-S-carboxymethylcysteine]	+0,5 ± 0,03%	+0,7 ± 0,07%	+1,9 ± 0,09%	1250	–
COc1ccccc1OC(=O)C(CS)NC(=O)C(C)SC(=O)c1cccs1 (stereo not drawn) [(8), 2-methoxyphenyl ester of N-[2-(2-thenoylthio)propionyl]cysteine]	+1,8 ± 0,04%	+1,7 ± 0,09%	+2,7 ± 0,05%	980	–
COc1ccccc1OC(=O)C(CSC(C)=O)NC(=O)C(C)SC(=O)c1cccs1 (stereo not drawn) [(9), 2-methoxyphenyl ester of N-[2-(2-thenoylthio)propionyl]-S-acetylcysteine]	+1,9 ± 0,03%	+1,5 ± 0,04%	+2,4 ± 0,04%	1230	–
COc1ccccc1OC(=O)C(CSCC(=O)O)NC(=O)C(C)SC(=O)c1cccs1 (stereo not drawn) [(10), 2-methoxyphenyl ester of N-[2-(2-thenoylthio)propionyl]-S-carboxymehtylcysteine]	+0,8 ± 0,02%	+1,3 ± 0,04%	+2,1 ± 0,03%	1340	–
N[C@@H](CSCC(=O)O)C(=O)O [CMC, S-carboxymethyl-cysteine, reference compound]	–	–	–	–	Removal of the sodium fluoresceine from the bronchial tree (percentage increase versus the controls) (bronchial tree): 33.4%
COc1ccccc1OC(=O)CNC(=O)C(C)SC(=O)c1cccs1 (stereo not drawn) [Compound (2), 2-methoxyphenyl N-[2-(2-thenoylthio)propionyl]aminoacetate]	+0,3 ± 0,01%	+0,7 ± 0,03%	+1,4 ± 0,05%	1240	pulmonary tropism [2]: high pulmonary tropism; lung concentrations of N-(2-mercaptopropionyl)glycine [2, 3]: higher; lung concentrations of thiophene-2-carboxylic acid [2, 3]: higher; absorption ([2]; oral administration): mostly absorbed as such after oral administration; % inhibition of the cough (cough; 100 mg/kg i.p.): 95.8%; % inhibition of the cough (cough; 500 mg/kg per os): 82.3%; Removal of the sodium fluoresceine from the bronchial tree (percentage increase versus the controls) (bronchial tree): 123.5%; bronchosecretogogic activity, comparison with CMC and MPG (bronchial tree): much higher than CMC and MPG; enzymatic hydrolysis products (esterase): enzymetically hydrolized giving N-(2-mercaptopropionyl)glycine, thiophene-2-carboxylic acid and guaiacol; tissue with highest esterase activity (esterase): highest esterase activity is showed by the lung
CC(S)C(=O)NCC(=O)O (stereo not drawn) [MPG, N-(2-mercaptopropionyl)glycine, reference compound]	–	–	–	–	Removal of the sodium fluoresceine from the bronchial tree (percentage increase versus the controls) (bronchial tree): 21.9%
COc1ccc2c3c1O[C@H]1[C@@H](O)C=C[C@H]4[C@@H](C2)N(C)CC[C@@]341 [codeine, reference compound]	–	–	–	–	% inhibition of the cough (cough; 12.5 mg/kg i.p.): 90.2%; % inhibition of the cough (cough; 25 mg/kg per os): 75.6%
